Data reported in EP0114908A1, “Finely pulverized 2,4-diamino-6-(2,5-dichlorophenyl)-1,3,5-triazine and pharmaceutically acceptable acid addition salts thereof” (NIPPON SHINYAKU COMPANY, LIMITED, priority 1983, dated 1984).
Where “and” joins values, the source holds several entries; their conditions need not be identical. Equal values may be shown once. Read-outs that look alike come from different tables or passages of the source.

Experiments:
Assay type in all cases: in vivo
[1] = system: ulcer formation induced by stress; assay: stress ulcer in rats, immobilization-water immersion method; settings: for ED50 / Inhibition Rate: stress ulcer; for ED50: per os; for activity on ulcer formation induced by stress: orally
From the text: Since 50 microns is a common particle diameter in pharmaceutical preparations, it was most surprising that such significant and important advantages accrued according to the present invention. Inhibition activity against stress ulcer in rats of the compound and pharmaceutically acceptable acid additio salts in the finely pulverized form of the present invention are set forth in Table 2.

male rats = assay: toxicity on intraperitoneal injection (LD50); settings: for LD50: injected intraperitoneally, male rats, limits given in brackets
From the text: This decrease in toxicity is totally unexpected and represents a significant and important advance in the art.

[2] = body weight increase inhibition on chronic oral administration; settings: rats; compared with a maleate salt having an average particle diameter of about 50 microns
Method: A further advantage results from body weight increase inhibition which is one of the main side effects of the compound and salts of the present invention. When 10 mg/kg or more per day of either the compound or maleate salt is chronically administered to rats orally, body weight increase is inhibited. This is a side effect of triazines of this type. […] However, when the compound or a pharmaceutically acceptable acid addition salt thereof according to the present invention having an average particle diameter of about 8 microns was administered, the appearance of the side effect was only transient and moderate and the recovery of body weight was far faster as compared to that occurring when the compound was administered having an average particle diameter of about 50 microns.
The average particle sizes were 8 microns for the compound according to the present invention as compared to the same compound having an average particle diameter of 50 microns.

SMILES	ED50 ([1]; Rattus norvegicus, po, determined from the data of Table 2, read-out: ED50) [mg/kg]	activity on ulcer formation induced by stress ([1]; dosage of 1 mg/kg)	Inhibition Rate ([1]; 0.3 mg/kg) [%]	Inhibition Rate ([1]; 1.0 mg/kg) [%]	Inhibition Rate ([1]; 3.0 mg/kg) [%]	Inhibition Rate ([1]; 10 mg/kg) [%]	Inhibition Rate ([1]; 30 mg/kg) [%]	rats killed (male rats; intraperitoneal injection, dosages up to 3000 mg/kg)	ED50 ([1]; determined from the data of Table 2) [mg/kg]	improvement in body weight side effect [2]	LD50 (male rats; listed as the maleate salt according to the present invention) [mg/kg]	activity on ulcer formation induced by stress ([1]; dosage of 5 mg/kg)	Inhibition Rate ([1]; 0.37 mg/kg per os, three values, 0.37 mg/kg)	Inhibition Rate ([1]; 3.72 mg/kg per os, three values, 3.72 mg/kg)	LD50 (male rats) [mg/kg]	LD50 (male rats; listed as the same compound having an average particle diameter of about 50 microns) [mg/kg]
Nc1nc(N)nc(-c2cc(Cl)ccc2Cl)n1 [Substance (I), 2,4-diamino-6-(2,5-dichlorophenyl)-1,3,5-triazine]	1.22	effective	33	45	63	70	85	no rats were killed								
Nc1nc(N)nc(-c2cc(Cl)ccc2Cl)n1 [Substance (II), 2,4-diamino-6-(2,5-dichlorophenyl)-1,3,5-triazine]			35	51	70	85			0.90	particularly dramatic	835					
Nc1nc(N)nc(-c2cc(Cl)ccc2Cl)n1 [2,4-diamino-6-(2,5-dichlorophenyl)-1,3,5-triazine]												ineffective	37% and 46% and 29%	62% and 47% and 33%	495	1740
